Test results reported in patent US7884067B2, “Peptides derived from cadherin and methods of use thereof” (Mount Sinai School of Medicine of New York University, priority 2001, dated 2011).

How the values were obtained:
N-cadherin = assay: In vitro γ-secretase-like ε-cleavage assay, membranes of WT-PS1-transfected HEK293 cells; type: biochemical, human; conditions: membranes from WT-PS1-transfected clone #7, presence of L-685,458, 37° C. 2 hours
Protocol: In vitro γ-secretase-like ε-cleavage assay. Cells were washed in PBS, resuspended in 1 ml of 4° C. hypotonic buffer (10 mM MOPS, pH 7.0, 10 mM KCl) and homogenized on ice. A post-nuclear supernatant was prepared by centrifugation at 1000×g for 15 minutes at 4° C. Crude membranes were isolated from the post-nuclear supernatant by centrifugation at 16,000×g for 40 minutes at 4° C. The membranes were then resuspended in […] of assay buffer (150 mM sodium citrate, pH 6.4, 1× Complete protease inhibitor cocktail), and incubated at 37° C. for 2 hours. Samples were either analyzed directly by WB or separated into pellet (P100) and supernatant (S100) fractions by ultracentrifugation for 1 hour at 100,000×g at 4° C. The S100 and P100 fractions were then analyzed by WB.
Membranes from PS1−/− (FIG. 7C, lane 1) or PS1+/+ (FIG. 7C, lanes 2-4) fibroblasts or from N2a cell cultures (FIG. 7C, lanes 5-6) incubated for 16 hours in the absence or presence of DMSO or L-685,458 ([…]), were incubated at 37° C. for 2 hours, separated by centrifugation in a pellet (P100, FIG. 7C, upper panels) and a soluble (S100, FIG. 7C, lower panels) fractions and then probed on WBs with C32 antibody. […]

CBP = target: T1, CBP (Mus musculus, UniProt P45481); assay: Immunofluorescence staining of pN-Cad/CTF2-transfected L cells; type: cell-based; conditions: compared to non-transfected controls
T1 construct: a process that relies on endogenous CBP and CREB; endogenous in cells; host or cells: L cells transfected with vector or pN-Cad/CTF2
T1 sequence (P45481 whole entry): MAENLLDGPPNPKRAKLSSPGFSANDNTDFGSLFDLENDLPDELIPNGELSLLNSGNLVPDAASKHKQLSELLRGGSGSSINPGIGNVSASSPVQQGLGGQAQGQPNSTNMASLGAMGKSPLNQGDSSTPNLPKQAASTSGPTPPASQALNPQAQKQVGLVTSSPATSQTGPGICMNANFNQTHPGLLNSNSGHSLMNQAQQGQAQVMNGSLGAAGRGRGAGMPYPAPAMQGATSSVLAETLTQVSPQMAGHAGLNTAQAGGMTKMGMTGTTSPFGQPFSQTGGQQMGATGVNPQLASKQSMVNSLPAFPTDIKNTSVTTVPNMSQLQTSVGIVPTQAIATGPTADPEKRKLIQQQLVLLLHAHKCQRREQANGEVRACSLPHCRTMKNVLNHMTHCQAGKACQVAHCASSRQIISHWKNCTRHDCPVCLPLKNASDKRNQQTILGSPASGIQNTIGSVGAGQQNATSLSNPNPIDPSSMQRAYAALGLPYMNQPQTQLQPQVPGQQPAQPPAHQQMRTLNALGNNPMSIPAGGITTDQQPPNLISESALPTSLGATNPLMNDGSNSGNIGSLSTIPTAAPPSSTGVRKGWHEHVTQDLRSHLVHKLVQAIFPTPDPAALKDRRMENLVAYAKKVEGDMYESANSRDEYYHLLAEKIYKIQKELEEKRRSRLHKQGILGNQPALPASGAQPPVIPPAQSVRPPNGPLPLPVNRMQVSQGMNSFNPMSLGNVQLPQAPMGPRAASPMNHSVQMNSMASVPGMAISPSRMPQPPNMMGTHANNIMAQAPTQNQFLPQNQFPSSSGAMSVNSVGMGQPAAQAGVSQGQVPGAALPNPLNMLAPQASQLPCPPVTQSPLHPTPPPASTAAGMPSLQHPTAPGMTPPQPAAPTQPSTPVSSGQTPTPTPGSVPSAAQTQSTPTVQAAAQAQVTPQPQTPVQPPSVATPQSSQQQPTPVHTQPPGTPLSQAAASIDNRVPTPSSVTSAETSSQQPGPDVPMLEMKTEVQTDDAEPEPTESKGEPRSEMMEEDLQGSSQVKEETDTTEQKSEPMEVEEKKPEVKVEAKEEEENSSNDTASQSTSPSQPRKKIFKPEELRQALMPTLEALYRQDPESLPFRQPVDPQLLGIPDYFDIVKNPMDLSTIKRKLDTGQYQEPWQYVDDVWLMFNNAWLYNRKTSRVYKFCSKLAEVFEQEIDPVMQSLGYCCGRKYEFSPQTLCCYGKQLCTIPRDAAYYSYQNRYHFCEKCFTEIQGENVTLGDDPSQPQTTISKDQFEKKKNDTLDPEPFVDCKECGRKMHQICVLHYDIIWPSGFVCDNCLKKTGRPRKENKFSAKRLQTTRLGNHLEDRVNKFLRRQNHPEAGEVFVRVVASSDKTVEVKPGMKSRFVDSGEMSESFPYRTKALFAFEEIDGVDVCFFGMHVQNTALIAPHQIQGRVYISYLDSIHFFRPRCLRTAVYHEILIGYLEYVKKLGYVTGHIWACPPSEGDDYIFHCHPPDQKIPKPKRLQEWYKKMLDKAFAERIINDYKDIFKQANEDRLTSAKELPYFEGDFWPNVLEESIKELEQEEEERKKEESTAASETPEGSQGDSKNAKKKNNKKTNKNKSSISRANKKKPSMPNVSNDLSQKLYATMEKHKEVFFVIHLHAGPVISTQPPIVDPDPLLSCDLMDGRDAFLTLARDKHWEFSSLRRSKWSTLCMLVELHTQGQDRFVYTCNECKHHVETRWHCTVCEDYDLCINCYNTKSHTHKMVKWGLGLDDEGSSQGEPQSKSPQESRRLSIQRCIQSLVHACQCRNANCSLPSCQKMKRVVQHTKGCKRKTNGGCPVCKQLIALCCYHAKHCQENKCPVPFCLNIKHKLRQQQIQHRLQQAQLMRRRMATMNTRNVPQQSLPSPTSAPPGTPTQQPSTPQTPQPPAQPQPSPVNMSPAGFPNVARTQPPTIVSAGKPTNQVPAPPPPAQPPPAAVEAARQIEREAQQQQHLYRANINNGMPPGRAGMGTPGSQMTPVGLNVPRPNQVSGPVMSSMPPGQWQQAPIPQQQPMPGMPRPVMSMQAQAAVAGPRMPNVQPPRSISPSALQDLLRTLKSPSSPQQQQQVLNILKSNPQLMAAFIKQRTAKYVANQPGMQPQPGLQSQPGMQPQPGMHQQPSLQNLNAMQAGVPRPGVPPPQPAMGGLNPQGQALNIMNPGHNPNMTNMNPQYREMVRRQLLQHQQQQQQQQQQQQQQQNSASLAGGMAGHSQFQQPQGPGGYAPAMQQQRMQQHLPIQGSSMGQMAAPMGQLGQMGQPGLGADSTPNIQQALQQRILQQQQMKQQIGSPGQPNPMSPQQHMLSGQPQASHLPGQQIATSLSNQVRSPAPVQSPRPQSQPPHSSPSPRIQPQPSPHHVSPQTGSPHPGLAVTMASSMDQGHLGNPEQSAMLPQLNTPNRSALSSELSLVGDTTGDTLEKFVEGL
Protocol: Immunoprecipitations (IPs), immunoblotting and immunofluorescence. IPs were performed as described by Marambaud et al. (2002) EMBO J. 21: 1948-1956 in 4° C. HEPES buffer (25 mM HEPES, pH 7.4, 150 mM NaCl, 1× Complete protease inhibitor cocktail, Roche) containing 0.5% Nonidet P40 (NP40). For western blot (WB) analysis, cells were solubilized in 4° C. RIPA buffer (50 mM Tris-HCl, pH 8, 150 mM NaCl, 0.1% SDS, 1% NP-40, 0.5% sodium deoxycholate, 1× Complete protease inhibitor cocktail) as described by Marambaud et al. (2002). Immunofluorescence was performed as described by Georgakopoulos et al. (1999) with the following modifications: to visualize nuclei, cells were treated for 5 minutes with 4′,6-diamidino-2-phenylndole (DAPI, 1:5000; Sigma). Fluorescence microscopy and digital image acquisition were carried out using an Axioskop2 microscope (Zeizz).
To determine how N-Cad/CTF2 affects CREB-mediated transcription, the following experiments were performed. L cells transfected either with vector (vector) or pN-Cad/CTF2 (N-Cad/CTF2) plasmids were fractionated into nuclear and cytosolic fractions, and probed on WBs with anti-CBP (FIG. 11A, panel a), anti-N-cadherin (FIG. 11A, panel b), anti-β-tubulin (FIG. 11A, panel c) or anti-phosphorylated CREB (P-CREB; FIG. 11A, panel d) antibodies. […] L cells transiently transfected with pN-Cad/CTF2 were analyzed by immunofluorescence staining. […]

Molecule	N-Cad/CTF2 production (N-cadherin)	cytoplasmic staining for N-Cad/CTF2 and CBP (CBP)
CC(C)C[C@H](NC(=O)[C@H](Cc1ccccc1)C[C@@H](O)[C@H](Cc1ccccc1)NC(=O)OC(C)(C)C)C(=O)N[C@@H](Cc1ccccc1)C(N)=O [L-685,458]	no N-Cad/CTF2 was detected	
N-Cad/CTF2: chicken cytoplasmic domain of N-cadherin (N-Cad/CTF2) inserted into vector pECE, expressed in L cells (protein) KRRDKERQAKQLLIDPEDDVRDNILKYDEEGGGEEDQDYDLSQLQQPDTVEPDAIKPVGIRRLDERPIHAEPQYPVRSAAPHPGDIGDFINEGLKAADNDPTAPPYDSLLVFDYEGSGSTAGSLSSLNSSSSGGEQDYDYLNDWGPRFKKLADMYGGGDD		clear cytoplasmic staining for both N-Cad/CTF2 and CBP
